{
  "source": "patent US12025612B2",
  "about": "“Brown adipocyte progenitors in human skeletal muscle” (Energesis Pharmaceuticals, Inc., priority 2008, dated 2024)",
  "key": {"[1]": {"system": "UCP1 mRNA expression in human skeletal muscle", "test": "UCP1 mRNA expression in vastus lateralis muscle biopsies of obese type 2 diabetic patients before and after rosiglitazone, quantitative RT-PCR", "type": "in vivo", "details": "for UCP1 mRNA level after treatment (Rosi), normalized to cyclophilin A: after 8 weeks", "protocol": "Since the PPARγ agonist rosiglitazone was a strong inducer of UCP1 mRNA expression in muscle CD34+ cells in culture, the effect of this compound in vivo in humans was investigated. Vastus lateralis muscle biopsies from 7 obese patients with type 2 diabetes mellitus treated for the management of their metabolic syndrome with rosiglitazone were used. The biopsies were obtained before and after 8 weeks of treatment with rosiglitazone (2×4 mg per day). […] In that study rosiglitazone, concomitantly with the improvement in insulin sensitivity, increased the level of expression of UCP1 in muscle by about 1.6-fold. […] The results are the means±s.e.m. of arbitrary values normalized using the corresponding cyclophilin A values (n=7, *p<0.05 vs. control).\nIn FIG. 5, showing UCP1 mRNA levels in skeletal muscle biopsies from a patient group (n=7), “control” corresponds to levels before treatment, and “Rosi” corresponds to levels after treatment (8 weeks) with rosiglitazone. Being a longitudinal study the effect of rosiglitazone on UCP1 levels in each individual (comparison of individual values for the “control”-before and “Rosi”-after conditions) were determined. Starting with 25 ng cDNA (produced by reverse transcription of RNA) the threshold of detection (Ct) during real-time PCR was about 22 for UCP1 and about 18 for cyclophilin.\nHuman fetal tissues were obtained anonymously, following spontaneous, voluntary or therapeutic terminations of pregnancy, from Magee Women Hospital, University of Pittsburgh, in compliance with the Institutional Review Board protocol. Developmental age (16 to 24 weeks of gestation) was estimated by measuring foot length. Informed consent to the use of fetal tissues was obtained from the patients in all instances. Adult human discarded abdominal subcutaneous WAT, originating from 45-55 year old patients undergoing plastic surgery performed one year after gastric bypass, was kindly provided by Dr Peter Rubin (Division of Plastic Surgery, University of Pittsburgh). The adult skeletal muscle tissue used for cell sorting was obtained post mortem from 50-78 year-old donors. The adult skeletal muscle used for the first group of RT-PCR studies was obtained from the rectus abdominus during surgery for either lap banding, inguinal hernia or hysterectomy of 10 lean male and female subjects. All subjects agreed to donate muscle samples during their operations and the protocol was approved by the Medical Ethical Review Committee of Deakin University. The average ages were 45±3 years and the average body mass index was 22.2±0.8. The adult skeletal muscle used for the second group of RT-PCR studies was obtained from the vastus lateralis of 7 obese type 2 diabetic male and female patients before and after 8 weeks of treatment with rosiglitazone (2×4 mg per day). The average age was 63±4 years and the average body mass index was […]. The complete clinical profile of the patients has been described in a previous publication. All subjects agreed to donate muscle samples, and the protocol was approved by the Medical Ethical Review Committee of Maastricht University.\nTotal cell RNA was prepared using the kit NucleoSpin® RNAII (Clontech, Palo Alto, Calif.) or Extract-all solution (Eurobio, Courtaboeuf, France) and quantified by Biophotometry (Biophotometer, Eppendor). Oligo-dT primed First strand cDNA were synthesized using the Superscript™ II RNase H Reverse Transcription kit (Invitrogen, Carlsbad, Calif.) and oligo-dT primers or the High Capacity cDNA Reverse Transcription kit (Applied Biosystems, Foster City, Calif.) and random primers. Quantitative real-time PCR was performed using ABI rapid thermal cycler system, and a SYBR Green PCR master mix (Applied Biosystems, Foster City, Calif.). Cyclophilin A was used as a control to account for any variations due to the efficiency of the reverse transcription. […]"}, "[2]": {"system": "UCP1 mRNA expression in fetal muscle CD34+ cells", "test": "UCP1 mRNA expression in cultured fetal muscle CD34+ cells, quantitative RT-PCR normalized to cyclophilin A", "type": "cell-based, human", "details": "rosiglitazone 1 μM", "protocol": "UCP1 mRNA expression in fetal muscle CD34+ cells could be modulated by drug treatment. Cell-permeating cAMP derivatives strongly stimulated (7 to 8-fold) UCP1 mRNA expression in both primary cultured and expanded cells. The effects of cAMP derivatives, 8-bromo-cAMP, 0.25 mM or (4-chlorophenylthio)-cAMP, 0.25 mM (cAMP) on UCP1 mRNA expression in CD34+ cells in primary culture (PC) or expanded up to passage 3 (P3) are shown in FIG. 3B. All the cells were grown for 4-6 days in EGM2 medium and then placed for 8-12 days in the adipogenic medium described under Materials and Methods. The results are means±s.e.m. of arbitrary values normalized using the corresponding cyclophilin A values. They are expressed in % of their respective untreated (control) values considered as 100% (*p<0.05, n=3-6).\nRosiglitazone, a PPARγ agonist, had no effect in primary culture cells but strongly stimulated (8-fold) UCP1 mRNA expression in expanded cells. The results are expressed as in FIG. 3B (**p<0.01, n=4-7). […]\nTotal cell RNA was prepared using the kit NucleoSpin® RNAII (Clontech, Palo Alto, Calif.) or Extract-all solution (Eurobio, Courtaboeuf, France) and quantified by Biophotometry (Biophotometer, Eppendor). […] Quantitative real-time PCR was performed using ABI rapid thermal cycler system, and a SYBR Green PCR master mix (Applied Biosystems, Foster City, Calif.). […]"}},
  "data": [
    {"compound": "CN(CCOc1ccc(CC2SC(=O)NC2=O)cc1)c1ccccn1", "note": "(centres unmarked) [rosiglitazone]", "values": [
      {"measurement": "increase of the level of expression of UCP1 in muscle", "setting": "[1]; 7 obese type 2 diabetic patients, 8 weeks, 2×4 mg per day, after vs before treatment, mean", "value": "about 1.6 fold"},
      {"measurement": "UCP1 level at end of treatment in % of before treatment", "setting": "[1]; Patient 1, 8 weeks", "value": 150, "unit": "%"},
      {"measurement": "UCP1 level increase, end of treatment vs. before", "setting": "[1]; Patient 1, 8 weeks", "value": 50, "unit": "%"},
      {"measurement": "UCP1 mRNA level after treatment (Rosi), normalized to cyclophilin A", "setting": "[1]; Patient 1", "value": 652, "unit": "arbitrary units"},
      {"measurement": "UCP1 level at end of treatment in % of before treatment", "setting": "[1]; Patient 2, 8 weeks", "value": 100, "unit": "%"},
      {"measurement": "UCP1 mRNA level after treatment (Rosi), normalized to cyclophilin A", "setting": "[1]; Patient 2", "value": 453, "unit": "arbitrary units"},
      {"measurement": "UCP1 level at end of treatment in % of before treatment", "setting": "[1]; Patient 3, 8 weeks", "value": 180, "unit": "%"},
      {"measurement": "UCP1 level increase, end of treatment vs. before", "setting": "[1]; Patient 3, 8 weeks", "value": 80, "unit": "%"},
      {"measurement": "UCP1 mRNA level after treatment (Rosi), normalized to cyclophilin A", "setting": "[1]; Patient 3", "value": 677, "unit": "arbitrary units"},
      {"measurement": "UCP1 level at end of treatment in % of before treatment", "setting": "[1]; Patient 4, 8 weeks", "value": 280, "unit": "%"},
      {"measurement": "UCP1 level increase, end of treatment vs. before", "setting": "[1]; Patient 4, 8 weeks", "value": 180, "unit": "%"},
      {"measurement": "UCP1 mRNA level after treatment (Rosi), normalized to cyclophilin A", "setting": "[1]; Patient 4", "value": 730, "unit": "arbitrary units"},
      {"measurement": "UCP1 level at end of treatment in % of before treatment", "setting": "[1]; Patient 5, 8 weeks", "value": 108, "unit": "%"},
      {"measurement": "UCP1 level increase, end of treatment vs. before", "setting": "[1]; Patient 5, 8 weeks", "value": 8, "unit": "%"},
      {"measurement": "UCP1 mRNA level after treatment (Rosi), normalized to cyclophilin A", "setting": "[1]; Patient 5", "value": 600, "unit": "arbitrary units"},
      {"measurement": "UCP1 level at end of treatment in % of before treatment", "setting": "[1]; Patient 6, 8 weeks", "value": 410, "unit": "%"},
      {"measurement": "UCP1 level increase, end of treatment vs. before", "setting": "[1]; Patient 6, 8 weeks", "value": 310, "unit": "%"},
      {"measurement": "UCP1 mRNA level after treatment (Rosi), normalized to cyclophilin A", "setting": "[1]; Patient 6", "value": 556, "unit": "arbitrary units"},
      {"measurement": "UCP1 level at end of treatment in % of before treatment", "setting": "[1]; Patient 7, 8 weeks", "value": 110, "unit": "%"},
      {"measurement": "UCP1 level increase, end of treatment vs. before", "setting": "[1]; Patient 7, 8 weeks", "value": 10, "unit": "%"},
      {"measurement": "UCP1 mRNA level after treatment (Rosi), normalized to cyclophilin A", "setting": "[1]; Patient 7", "value": 142, "unit": "arbitrary units"},
      {"measurement": "stimulation of UCP1 mRNA expression", "setting": "[2]; CD34+ cells expanded up to passage 3 (P3)", "value": 8, "unit": "fold"},
      {"measurement": "effect on UCP1 mRNA expression", "setting": "[2]; CD34+ cells in primary culture (PC)", "value": "no effect"}
    ]}
  ]
}
